According to PubChem BioAssay AID1345 (Sanford-Burnham Center for Chemical Genomics, 2008):
The source made the active and inactive calls.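 The calls were made as follows: active = survival above 70% of the untreated level at 25 µM; inactive = the rest.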

Tested on: CSM14.1 cells, VP16-induced death, ATP luminescence, 48 h
Test: rescue from etoposide-induced cell death, late-stage follow-up, selectivity assay for ER stress death inhibitor project, undifferentiated CSM14.1, ATP content (AID 1345)
Settings: at 25 µM; hits give high values

Compound | viability
COc1ccc(C2CC(=O)C3=C(C2)Nc2ccccc2NC3c2cccc(C(F)(F)F)c2)cc1OC (stereo unspecified) | 49% (inactive)
COc1ccc(C2CC(=O)C3=C(C2)Nc2ccccc2NC3c2cccc(Oc3ccccc3)c2)cc1OC (stereo unspecified) | 54% (inactive)
O=C1CC(c2ccccc2)CC2=C1C(c1c(F)cccc1Cl)Nc1ccccc1N2 (stereo unspecified) | 50% (inactive)
CCOc1cc(C2Nc3ccccc3NC3=C2C(=O)CC(c2ccc(OC)cc2)C3)cc(Cl)c1O (stereo unspecified) | 42% (inactive)
CSc1ccc(C2Nc3ccccc3NC3=C2C(=O)CC(c2ccccc2)C3)cc1 (stereo unspecified) | 52% (inactive)
CC1(C)CC(=O)C2=C(C1)Nc1ccccc1NC2c1ccc(-c2ccccc2)cc1 (stereo unspecified) | 53% (inactive)
COc1ccc(C2CC(=O)C3=C(C2)Nc2ccccc2NC3c2cccc(Br)c2)cc1OC (stereo unspecified) | 56% (inactive)
COc1ccc(C2CC(=O)C3=C(C2)Nc2ccccc2NC3c2cc(C)ccc2C)cc1 (stereo unspecified) | 56% (inactive)
CCCOc1ccc(C2Nc3ccccc3NC3=C2C(=O)CC(c2ccc(OC)c(OC)c2)C3)cc1 (stereo unspecified) | 57% (inactive)
COc1ccc(C2CC(=O)C3=C(C2)Nc2ccccc2NC3c2ccccc2C(F)(F)F)cc1OC (stereo unspecified) | 50% (inactive)
CCOc1cccc(C2Nc3ccccc3NC3=C2C(=O)CC(c2ccc(OC)cc2)C3)c1 (stereo unspecified) | 50% (inactive)
